Measured values: patent publication US20240342111A1, “ISOMER-SPECIFIC NEUROPROTECTIVE EFFECT OF NATURAL RESERVATROL” (priority 2021, published 2024)

Key:
[1] = system: rat primary cortical neuron cultures; assay: NMDA excitotoxicity, viability by MTT assay; assay type: cell-based; details: then NMDA 500 μM for 5 minutes
Procedure: Cells were then exposed to excitotoxic NMDA (500 μM for 5 minutes) and viability was assessed using MTT assay after 24 hours. […] Rat cortical neurons (DIV 9) were treated with NMDA (50 μM for 5 minutes) and then with cis-RSV for 24 hours. Cells were then exposed to excitotoxic NMDA (500 μM for 5 minutes) and viability was assessed using MTT assay after 24 hours. […] Cell viability was assessed after 48 hours. […] Representative images (scale bar, 20 μm) for cortical neurons following neurite degeneration (MAP2—neurite marker, magenta and DAPI—nuclear marker, blue). […] Neurons were immunoassayed with anti-MAP2 antibody and quantified for neurite degeneration. The data represents mean±SEM for n=3 experiments with significance measured using Student's paired t-test.
Primary cortical neuron cultures were obtained from E18 Sprague Dawley rats' cortices, which were dissected in Hibernate E (BrainBits) and dissociated using the Neural Tissue Dissociation kit (Miltenyi Biotec). For this, minced cortices were incubated in a pre-warmed enzyme mix at 37° C. for 15 min; tissues were then triturated and strained using a 40 μm cell strainer. After washing and centrifugation, neurons were seeded in 50 μg/ml poly-D-Lysine (Sigma Aldrich) coated tissue culture plates. NBActive-1 medium (BrainBits) supplemented with 100 U/ml of Penicillin-Streptomycin (Life Technologies), 2 mM L-Glutamine (Life Technologies), and 1 X N21 supplement (R&D Systems) was used as culture medium. Control (AM4635), TyrRS (s443), PARP1 (s130207) siRNA for transfection were obtained from Invitrogen. […]
Rat cortical neurons (DIV 10-11) were exposed to different treatments after seeding 20,000 cells/well in 96-well plates. Cell viability was then assessed at 48 hours after the initial exposure to NMDA. […] The percentage of MTT reduced as measured by the difference between the absorbances at 570 nm read in a spectrophotometer (Spectramax 190R Molecular Devices, UK). The percentage of reduction of MTT was calculated comparing the difference of the absorbance at 570 of each sample. […]

Ligase IV = assay: Immunoblot for DNA repair protein Ligase IV; assay type: cell-based, rat; details: 5-50 μM, 4 hours
Source text: Ac-K56-H3 is a marker of genomic stability, see Driscoll, R., Hudson, A. & Jackson, S. P. Yeast Rtt109 promotes genome stability by acetylating histone H3 on lysine 56. Science 315, 649-652, doi:10.1126/science.1135862 (2007), and DNA damage, see Tjeertes, J. V., Miller, K. M. & Jackson, S. P. Screen for DNA-damage-responsive histone modifications identifies H3K9Ac and H3K56Ac in human cells. EMBO J 28, 1878-1889, doi:10.1038/emboj.2009.119 (2009), and inhibition of PARP1 causes the downregulation of RAD51, see Hegan, D. C. et al. Inhibition of poly(ADP-ribose) polymerase down-regulates BRCA1 and RAD51 in a pathway mediated by E2F4 and p130. […] The western blot images of the protein levels of HPF1 was quantified using ImageJ.
Cultured neurons (DIV 9-10) were washed once with cold 1×PBS and lysed in cell lysis buffer (20 mM Tris-HCl (pH 7.5), 150 mM NaCl, 1 mM Na2EDTA, 1 mM EGTA, 1% Triton, 2.5 mM sodium pyrophosphate, 1 mM beta-glycerophosphate, 1 mM Na3VO4, 1 μg/ml leupeptin supplemented with protease inhibitor). […] Lysates were quantified using Bio-Rad Protein Assay, and an equal amount of protein was loaded onto a 4 to 12% gradient gel (NuPAGE-Invitrogen). […] Quantification for the western blots was done using ImageJ (Version 1.53c).

PARP1 = assay: Auto-PARylation of PARP1 after siRNA knockdown of TyrRS; assay type: cell-based, rat; details: 15 minutes

Compound	neuronal survival under NMDA excitotoxicity ([1]; cis-RSV for 24 hours)	ligase IV protein levels (Ligase IV)	auto-PARylation of PARP1 after knockdown of TyrRS (PARP1; cis-RSV 25 μM)	neuronal survival under NMDA excitotoxicity ([1]; higher dose (≥25 μM), 24 hours)	neuronal survival under NMDA excitotoxicity ([1]; low dose (≤10 μM), 24 hours)	auto-PARylation of PARP1 after knockdown of TyrRS (PARP1; trans-RSV 5 μM)
Oc1ccc(/C=C\c2cc(O)cc(O)c2)cc1 [cis-RSV, cis-resveratrol]	protected against excitotoxicity in a dose-dependent manner	upregulated them	blunted after knockdown of TyrRS			
Oc1ccc(/C=C/c2cc(O)cc(O)c2)cc1 [trans-RSV, trans-resveratrol]		downregulated the protein levels		exacerbated the N-Methyl-D-aspartate (NMDA)-mediated excitotoxicity	evoked neuroprotective effects	blunted after knockdown of TyrRS
